Legend:
DS cells = test: DS lymphoma cell growth, MTT assay; format: cell-based, human; conditions: day 3; IFN-alpha 1,000 u/ml
Method: For cell proliferation assays, cells were grown in 10% FCS culture medium containing various amounts of IFNs and/or sodium stibogluconate in 96 well plates and cultured at 37° C. for 3 or 6 days as indicated. The numbers of viable cells in proliferation assays were determined by MTT assays as described in Phatak et al., J. Immunol. 167, 3391 (2001).

NB4 cells = test: NB4 cell proliferation, MTT assay; format: cell-based, human; conditions: 12.5-400 μg/ml
Method: The NB4 cell line (Lanotte et al., Blood 77, 1080 (1991)) was a gift from Dr. Dan Lindner of the Cleveland Clinic Foundation. […] and U937 cell lines were purchased from American Type Culture Collection (Rockville, Md.). These human […] cell lines were maintained in RPMI 1640 medium supplemented with 10% fetal calf serum (FCS). For cell proliferation assays, cells were cultured at 37° C. in 10% FCS medium containing various amounts of sodium stibogluconate for 6 days. The cell numbers in the cultures were determined by an MTT assay as described previously in Mosmann, J. Immunol. Methods 65, 55 (1983).

[1] = tested on: A549, Hey, LoVo, SK-N-SH, U251 and DU145 cell lines; test: Growth of human cancer cell lines that express PRLs, MTT assay; format: cell-based; conditions: 100 μg/ml, day 6
Method: NIH3T3 (Yi, et al., Blood 85, 87 (1995)), WM9 (Forsberg, et al., Proc. Nat. Acad. Sci. USA 90, 393 (1993)), DU145 (Mickey, et al., Cancer Res. 37, 4049 (1977)), LoVo (Drewinko, et al., Cancer Res. 36, 467 (1976)), HEY (Buick, et al., Cancer Res. 45, 3668 (1985)), U251 (Yoshida, et al., Cancer 50, 410 (1982)), A549 (Giard, et al., J. Natl. Cancer Inst. 51, 1417 (1973)) and SK-N-SH (Helson, et al., Cancer Res. 35, 2594 (1975)) cell lines have been described and were cultured in RPMI 1640 supplemented with 10% fetal calf serum (FCS). For measurement of sodium stibogluconate effects on cell growth in vitro, cells were cultured in the absence (−) or presence (+) of various amounts of sodium stibogluconate for 6 days with viable cells quantified by MTT assays (Mosmann, J. Immunol. Methods 65, 55 (1983)). Percentages of growth inhibition by sodium stibogluconate were calculated (.+−.x %).

[2] = tested on: Stat1 tyrosine phosphorylation; test: IFN-alpha-induced Stat1 tyrosine phosphorylation, Western blotting; format: cell-based, human
Method: Cell lysates were prepared by lysing cells in cold lysis buffer for 30 min and cleared by centrifuging at 14,000 rpm at 4° C. for 15 min. For SDS-PAGE, cell lysates were mixed with equal volume of 2×SDS-PAGE sample buffer, heated at 90° C. for 5 min and separated in 10% SDS-PAGE gels. Cellular proteins in SDS-PAGE gels were transferred to nitrocellulose membrane (Schleicher & Schuell, Keene, N.H.), blocked in 5% milk, probed with antibodies and detected by using an enhanced chemiluminescence kit (ECL, Amersham, Arlington Heights, Ill.).

intracellular Flag-PRL-1 = molecular target: T1, intracellular Flag-PRL-1 (Homo sapiens, UniProt Q93096); test: Immunocomplex PTPase assay, Flag-PRL-1 NIH3T3 transfectants; format: cell-based; conditions: cells treated 5 min
T1 construct: expressed in transfected cells
Method: Immunocomplex PTPase assays were performed to assess the effects of sodium stibogluconate on intracellular PTPases. Cells were untreated or treated with sodium stibogluconate for 5 minutes, washed with fresh medium and then lysed in cold lysis buffer (50 mM Tris, pH 7.4; 150 mM NaCl; 1% NP40; 2 mM PMSF; 20 μg/ml of Aprotinin). The lysates were incubated with an anti-Flag antibody in immunoprecipitation assays. The immunocomplexes were collected with protein G sepharose beads (Pharmacia) and washed in cold lysis buffer for 4 times. […] C. for 18 hrs. 100 µL of malachite green solution (UBI) was added to each reaction prior to measurement of OD660 to quantify the amounts of free phosphate cleaved by the PTPases from the peptide substrate (Pathak et al., J. Imumol. 167, 3391 (2001)). The remaining 10% contents of individual samples were analyzed by SDS-PAGE/Western blotting to quantify the relative amounts of the phosphatase proteins. […]
The effects of sodium stibogluconate on intracellular PTPases were assessed using NIH3T3 or WM9 transfectants. […]

[3] = tested on: Jak2/Stat5 and cellular protein tyrosine phosphorylation in Baf3 cells; test: Cellular protein phosphorylation and Western blotting in Baf3 cells; format: cell-based, murine
Method: For induction of cellular protein phosphorylation by sodium stibogluconate or pervanadate, Baf3 cells were incubated in 0.1% FCS-RPMI 1640 medium at 37° C. for 16 hours. The cells were then washed twice in RPMI 1640 medium and incubated with sodium stibogluconate or pervanandate (0.1 mM) for various times prior to termination by lysing cells in cold lysis buffer (50 mM Tris, pH 7.4; 150 mM NaCl; 0.2 mM Na3VO4; 20 mm NaF; 1% Nonidet P-40; 2 mM PMSF; 20 µg/ml of Aprotinin and 1 mM of sodium molybdic acid). To determine the effect of sodium stibogluconate or potassium antimonyl tartrate on IL-3-induced Jak/Stat phosphorylation, Baf3 cells were deprived of the growth factor for 16 hours in 0.1% FCS RPMI 1640 medium and then incubated with or without sodium stibogluconate or potassium antimonyl tartrate for 10 minutes. IL-3 was next added to the cell suspension and incubated for various times. The Cells were then harvested and lysed in cold lysis buffer at 4° C. for 45 minutes. Total cell lysates (TCL) were separated in SDS-PAGE gels, blotted onto nitrocellulose membrane (Schleicher & Schuell), probed with specific antibodies and detected using an enhanced chemiluminescence kit (ECL, Amersham, Arlington Heights, Ill.).

T1 sequence (Q93096 whole entry): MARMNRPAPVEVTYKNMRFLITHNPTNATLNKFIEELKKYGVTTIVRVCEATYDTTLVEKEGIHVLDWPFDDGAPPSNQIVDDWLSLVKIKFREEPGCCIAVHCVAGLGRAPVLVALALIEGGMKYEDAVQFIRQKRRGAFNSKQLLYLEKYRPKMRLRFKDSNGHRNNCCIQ

With `O.O.O.O.O.O.O.O.O.O=C([O-])[C@@H]1[O][Sb]2([O-])([O][Sb]34([OH])[O][C@H]([C@H](O)CO)[C@H]([O]3)[C@H](C(=O)[O-])[O]4)[O][C@H]([C@H](O)CO)[C@@H]1[O]2.[Na+].[Na+].[Na+]` [sodium stibogluconate] as the compound, how does the “activity against DS cells” value (DS cells) read?
The value was “modest activity”.

What about the “proliferation of NB4 cells” value (NB4 cells) of the same compound?
The value was “markedly inhibited”.

And the “cell killing of the cell lines” value [1]?
The value was “near-complete cell killing”.

What about the “IFN-alpha-induced Stat1 tyrosine phosphorylation in WM35 and WiT49-N1 cell lines” value [2] of the same compound?
The value was “failed to enhance”.

What about the “Stat1 tyrosine phosphorylation in DR cells in the absence of IFN-alpha” value [2] of the same compound?
The value was “failed to induce”.

And the “IFN-alpha-induced Stat1 tyrosine phosphorylation in DR cells” value ([2]; 10 μg/ml, 30 min post-stimulation)?
The value was “approximately two folds greater than control”.

And the “IFN-alpha-induced Stat1 tyrosine phosphorylation in WM9 and DU145 cell lines” value ([2]; 5 hours post-stimulation)?
The value was “Enhanced”.

What about the “PTPase activity of immunocomplexes from treated Flag-PRL-1 transfectants” value (intracellular Flag-PRL-1) of the same compound?
Its value is “little PTPase activities”.

And the “induced cellular protein tyrosine phosphorylation” value ([3]; Baf3 cells, in comparison with pervanadate (0.1 mM))?
Its value is “modest and transient”.

What about the “phosphotyrosine levels of Jak2 and Stat5 relative to cells without drug treatment” value ([3]; IL-3-stimulated Baf3 cells, densitometry) of the same compound?
The value was “about twice”.

And the “Jak2/Stat5 tyrosine phosphorylation by drug alone” value ([3]; no IL-3, 37 °C for 16 hours)?
The value was “failed to induce”.
